The assay deals with T1, CYP81A24 (Echinochloa phyllopogon, UniProt R4WC97).
T1 construct: expressed in E. coli C41(DE3) from pET28 with co-expressed Arabidopsis ATR2 reductase (pCDF, with HemA) and pGro7 chaperonin
T1 sequence (R4WC97 1-515): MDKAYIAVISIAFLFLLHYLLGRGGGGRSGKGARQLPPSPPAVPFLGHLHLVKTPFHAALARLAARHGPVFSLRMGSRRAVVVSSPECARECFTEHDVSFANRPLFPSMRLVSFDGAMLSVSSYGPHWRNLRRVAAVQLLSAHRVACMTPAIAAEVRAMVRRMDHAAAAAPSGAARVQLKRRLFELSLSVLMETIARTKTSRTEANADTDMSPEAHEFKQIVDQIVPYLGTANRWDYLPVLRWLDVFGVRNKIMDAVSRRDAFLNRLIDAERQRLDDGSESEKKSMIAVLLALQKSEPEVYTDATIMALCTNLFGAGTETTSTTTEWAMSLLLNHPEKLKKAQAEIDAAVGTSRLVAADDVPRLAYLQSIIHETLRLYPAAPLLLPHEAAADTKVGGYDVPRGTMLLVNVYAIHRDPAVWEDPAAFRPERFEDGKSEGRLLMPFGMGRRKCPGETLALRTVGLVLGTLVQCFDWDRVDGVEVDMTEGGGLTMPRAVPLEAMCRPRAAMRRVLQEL
Briefly: E. coli whole-cell metabolism, LC-MS/MS MRM m/z […] to […]. It counts as cell-based. The following applies: 0.2 mM quinclorac, 24 h, 30 °C; co-expressed ATR2 reductase; putative hydroxylated product, no authentic standard.

Consider `O=C(O)c1c(Cl)ccc2cc(Cl)cnc12` [quinclorac], for which the “E. coli whole-cell metabolism, LC-MS/MS MRM m/z 258 to 177” value was “identified in the culture solution of E. coli with CYP81A12, CYP81A21, and CYP81A24”.

For the origin of these results see publication PMC13329992, “Catalytic Promiscuity Underpins Metabolic Resistance to Auxinic Herbicides in Echinochloa phyllopogon” (Journal of Agricultural and Food Chemistry, 2026).
